The numbers were not newly measured in publication PMC3964610 (Methods in molecular biology (Clifton, N.J.), 2012), which cites them from elsewhere.

For the series the following is noted: I.P. 10 mg/kg, male Swiss Albino mice, plasma; ref [17].

In the case of `CCC(=O)N1CCN(c2ccc(-n3c(=O)ccc4cnc5ccc(-c6cnc7ccccc7c6)cc5c43)cc2C(F)(F)F)CC1` [Torin1, 1-(4-(4-propionylpiperazin-1-yl)-3-(trifluoromethyl)phenyl)-9-(quinolin-3-yl)benzo[h][1,6]naphthyridin-2(1H)-one], the AUC was 5718 ng·h/mL, the Cmax was 5121 ng/mL and the time to peak (Tmax) is 4.8 min.

For orientation: AUC means the area under the concentration-time curve, a measure of exposure. One may read the Cmax as the peak of the concentration-time curve. The term Tmax denotes the time at which the peak concentration occurs.
